In patent US10118935B2, “Melampomagnolide B dimers” (priority 2014, dated 2018):

Assays:
HCC-2998 = test: NCI 60 cell line five dose, Colon Cancer
RPMI-8226 = test: NCI 60 cell line five dose, Leukemia
MALME-3M = test: NCI 60 cell line five dose, Melanoma; settings: MAL1ME-3M
RXF 393 = test: NCI 60 cell line five dose, Renal Cancer
SK-OV-3 = test: NCI 60 cell line five dose, Ovarian Cancer
HCT-15 = test: NCI 60 cell line five dose, Colon Cancer
SF-539 = test: NCI 60 cell line five dose, CNS Cancer
U251 = test: NCI 60 cell line five dose, CNS Cancer
K-562 = test: NCI 60 cell line five dose, Leukemia
UACC-62 = test: NCI 60 cell line five dose, Melanoma
UO-31 = test: NCI 60 cell line five dose, Renal Cancer
COLO 205 = test: NCI 60 cell line five dose, Colon Cancer

Question: What does the source list for `C=C1C(=O)O[C@H]2[C@H]1CC/C(COC(=O)NCCCCNC(=O)OC/C1=C/CC[C@@]3(C)O[C@H]3[C@H]3OC(=O)C(=C)[C@@H]3CC1)=C\CC[C@@]1(C)O[C@@H]21` [JVM 3-54, bis(((1aR,7aS,10aS,10bS,E)-1a-Methyl-8-methylene-9-oxo-1a,2,3,6,7,7a,8,9,10a,10b-decahydrooxireno[2′,3′:9,10]cyclodeca[1,2-b]furan-5-yl)methyl)butane-1,4-diyldicarbamate]?
Answer: GI50 (HCC-2998): 2.35 µM; TGI (HCC-2998): 4.78 µM; Percent Growth (HCC-2998; Log10 Concentration −4.0): −78%; Percent Growth (HCC-2998; Log10 Concentration −5.0): −52%; Percent Growth (HCC-2998; Log10 Concentration −6.0): 110%; Percent Growth (HCC-2998; Log10 Concentration −7.0): 99%; Percent Growth (HCC-2998; Log10 Concentration −8.0): 97%; CC50 (HCC-2998; read-out: LC50): 9.73 µM; GI50 (RPMI-8226): 0.547 µM; TGI (RPMI-8226): 3.08 µM; Percent Growth (RPMI-8226; Log10 Concentration −4.0): −42%; Percent Growth (RPMI-8226; Log10 Concentration −5.0): −33%; Percent Growth (RPMI-8226; Log10 Concentration −6.0): 31%; Percent Growth (RPMI-8226; Log10 Concentration −7.0): 102%; Percent Growth (RPMI-8226; Log10 Concentration −8.0): 101%; CC50 (RPMI-8226; read-out: LC50): > 100 µM; GI50 (MALME-3M): 0.452 µM; TGI (MALME-3M): 2.19 µM; Percent Growth (MALME-3M; Log10 Concentration −4.0): −64%; Percent Growth (MALME-3M; Log10 Concentration −5.0): −56%; Percent Growth (MALME-3M; Log10 Concentration −6.0): 29%; Percent Growth (MALME-3M; Log10 Concentration −7.0): 90%; Percent Growth (MALME-3M; Log10 Concentration −8.0): 95%; CC50 (MALME-3M; read-out: LC50): 8.43 µM; GI50 (RXF 393): 1.44 µM; TGI (RXF 393): 3.36 µM; Percent Growth (RXF 393; Log10 Concentration −4.0): −100%; Percent Growth (RXF 393; Log10 Concentration −5.0): −64%; Percent Growth (RXF 393; Log10 Concentration −6.0): 71%; Percent Growth (RXF 393; Log10 Concentration −7.0): 95%; Percent Growth (RXF 393; Log10 Concentration −8.0): 100%; CC50 (RXF 393; read-out: LC50): 7.84 µM; GI50 (SK-OV-3): 12.7 µM; TGI (SK-OV-3): 25.3 µM; Percent Growth (SK-OV-3; Log10 Concentration −4.0): −100%; Percent Growth (SK-OV-3; Log10 Concentration −5.0): 67%; Percent Growth (SK-OV-3; Log10 Concentration −6.0): 107%; Percent Growth (SK-OV-3; Log10 Concentration −7.0): 102%; Percent Growth (SK-OV-3; Log10 Concentration −8.0): 98%; CC50 (SK-OV-3; read-out: LC50): 50.4 µM; GI50 (HCT-15): 5.61 µM; TGI (HCT-15): 20.8 µM; Percent Growth (HCT-15; Log10 Concentration −4.0): 79%; Percent Growth (HCT-15; Log10 Concentration −5.0): 37%; Percent Growth (HCT-15; Log10 Concentration −6.0): 90%; Percent Growth (HCT-15; Log10 Concentration −7.0): 94%; Percent Growth (HCT-15; Log10 Concentration −8.0): 96%; CC50 (HCT-15; read-out: LC50): 56.3 µM; GI50 (SF-539): 1.55 µM; TGI (SF-539): 3.71 µM; Percent Growth (SF-539; Log10 Concentration −4.0): −100%; Percent Growth (SF-539; Log10 Concentration −5.0): −57%; Percent Growth (SF-539; Log10 Concentration −6.0): 75%; Percent Growth (SF-539; Log10 Concentration −7.0): 93%; Percent Growth (SF-539; Log10 Concentration −8.0): 103%; CC50 (SF-539; read-out: LC50): 8.84 µM; GI50 (U251): 2.94 µM; TGI (U251): 9.83 µM; Percent Growth (U251; Log10 Concentration −4.0): −95%; Percent Growth (U251; Log10 Concentration −5.0): −1%; Percent Growth (U251; Log10 Concentration −6.0): 95%; Percent Growth (U251; Log10 Concentration −7.0): 101%; Percent Growth (U251; Log10 Concentration −8.0): 99%; CC50 (U251; read-out: LC50): 33.3 µM; GI50 (K-562): 0.665 µM; TGI (K-562): 10.4 µM; Percent Growth (K-562; Log10 Concentration −4.0): −46%; Percent Growth (K-562; Log10 Concentration −5.0): 1%; Percent Growth (K-562; Log10 Concentration −6.0): 40%; Percent Growth (K-562; Log10 Concentration −7.0): 96%; Percent Growth (K-562; Log10 Concentration −8.0): 101%; CC50 (K-562; read-out: LC50): > 100 µM; GI50 (UACC-62): 0.753 µM; TGI (UACC-62): 2.5 µM; Percent Growth (UACC-62; Log10 Concentration −4.0): −86%; Percent Growth (UACC-62; Log10 Concentration −5.0): −67%; Percent Growth (UACC-62; Log10 Concentration −6.0): 44%; Percent Growth (UACC-62; Log10 Concentration −7.0): 93%; Percent Growth (UACC-62; Log10 Concentration −8.0): 95%; CC50 (UACC-62; read-out: LC50): 7.06 µM; GI50 (UO-31): 7.61 µM; TGI (UO-31): 20.9 µM; Percent Growth (UO-31; Log10 Concentration −4.0): −95%; Percent Growth (UO-31; Log10 Concentration −5.0): 45%; Percent Growth (UO-31; Log10 Concentration −6.0): 88%; Percent Growth (UO-31; Log10 Concentration −7.0): 84%; Percent Growth (UO-31; Log10 Concentration −8.0): 86%; CC50 (UO-31; read-out: LC50): 47.7 µM; GI50 (COLO 205): 0.466 µM; TGI (COLO 205): 1.8 µM; Percent Growth (COLO 205; Log10 Concentration −4.0): −61%
